Assay results taken from the kinase profiling compilation of Christmann-Franck et al. (2016).

How the values were obtained:
Assay in all cases: radiometric filter-binding kinase assay
Details in all cases: compound 100.0 µM
IKBKE (human) = IKBKE (human) (UniProt Q14164)
MAPK8 (human) = MAPK8 (human) (UniProt P45983)
AURKA (human) = AURKA (human) (UniProt O14965)
PLK1 (human) = PLK1 (human) (UniProt P53350)
GSK3B (human) = GSK3B (human) (UniProt P49841)
PIM3 (human) = PIM3 (human) (UniProt Q86V86)
MAPK11 (human) = MAPK11 (human) (UniProt Q15759)
MARK2 (human) = MARK2 (human) (UniProt Q7KZI7)
MAPK10 (human) = MAPK10 (human) (UniProt P53779)
TTK (human) = TTK (human) (UniProt P33981)
MAPK14 (human) = MAPK14 (human) (UniProt Q16539)
ERBB4 (human) = ERBB4 (human) (UniProt Q15303)
HIPK2 (human) = HIPK2 (human) (UniProt Q9H2X6)
DYRK2 (human) = DYRK2 (human) (UniProt Q92630)
NEK2 (human) = NEK2 (human) (UniProt P51955)
FGFR1 (human) = FGFR1 (human) (UniProt P11362)
INSRR (human) = INSRR (human) (UniProt P14616)
CHEK2 (human) = CHEK2 (human) (UniProt O96017)
MAP3K9 (human) = MAP3K9 (human) (UniProt P80192)
FLT1 (human) = FLT1 (human) (UniProt P17948)
MAPKAPK3 (human) = MAPKAPK3 (human) (UniProt Q16644)
DYRK3 (human) = DYRK3 (human) (UniProt O43781)
AURKB (human) = AURKB (human) (UniProt Q96GD4)
PIM1 (human) = PIM1 (human) (UniProt P11309)
MINK1 (human) = MINK1 (human) (UniProt Q8N4C8)
MAPK9 (human) = MAPK9 (human) (UniProt P45984)
MAPK12 (human) = MAPK12 (human) (UniProt P53778)
MAPK1 (human) = MAPK1 (human) (UniProt P28482)
RIPK2 (human) = RIPK2 (human) (UniProt O43353)
INSR (human) = INSR (human) (UniProt P06213)
NUAK1 (human) = NUAK1 (human) (UniProt O60285)
DYRK1A (human) = DYRK1A (human) (UniProt Q13627)
RPS6KA3 KD1 KD2 (human) = RPS6KA3 KD1 KD2 (human) (UniProt P51812)
MAP3K11 (human) = MAP3K11 (human) (UniProt Q16584)
MAPK13 (human) = MAPK13 (human) (UniProt O15264)
CLK2 (human) = CLK2 (human) (UniProt P49760)
MAPKAPK2 (human) = MAPKAPK2 (human) (UniProt P49137)
MAPK3 (human) = MAPK3 (human) (UniProt P27361)
BTK (human) = BTK (human) (UniProt Q06187)
[1] = test system: AKT2 (human), P31751 [S474D]
CaMK1 (human) = CaMK1 (human) (UniProt Q14012)
Chain of CaMK1 (human) (Q14012 whole entry, looked up): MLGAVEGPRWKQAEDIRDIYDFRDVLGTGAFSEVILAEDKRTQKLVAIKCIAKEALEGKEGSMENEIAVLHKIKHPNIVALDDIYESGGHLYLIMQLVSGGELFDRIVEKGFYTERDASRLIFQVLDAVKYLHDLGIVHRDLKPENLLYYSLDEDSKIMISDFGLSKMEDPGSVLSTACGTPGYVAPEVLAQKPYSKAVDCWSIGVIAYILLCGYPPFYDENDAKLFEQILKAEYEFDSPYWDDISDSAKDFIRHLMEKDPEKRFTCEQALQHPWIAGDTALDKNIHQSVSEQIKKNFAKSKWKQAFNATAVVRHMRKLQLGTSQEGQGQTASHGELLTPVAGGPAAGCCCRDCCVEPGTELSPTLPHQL

Chain of RIPK2 (human) (O43353 whole entry, looked up): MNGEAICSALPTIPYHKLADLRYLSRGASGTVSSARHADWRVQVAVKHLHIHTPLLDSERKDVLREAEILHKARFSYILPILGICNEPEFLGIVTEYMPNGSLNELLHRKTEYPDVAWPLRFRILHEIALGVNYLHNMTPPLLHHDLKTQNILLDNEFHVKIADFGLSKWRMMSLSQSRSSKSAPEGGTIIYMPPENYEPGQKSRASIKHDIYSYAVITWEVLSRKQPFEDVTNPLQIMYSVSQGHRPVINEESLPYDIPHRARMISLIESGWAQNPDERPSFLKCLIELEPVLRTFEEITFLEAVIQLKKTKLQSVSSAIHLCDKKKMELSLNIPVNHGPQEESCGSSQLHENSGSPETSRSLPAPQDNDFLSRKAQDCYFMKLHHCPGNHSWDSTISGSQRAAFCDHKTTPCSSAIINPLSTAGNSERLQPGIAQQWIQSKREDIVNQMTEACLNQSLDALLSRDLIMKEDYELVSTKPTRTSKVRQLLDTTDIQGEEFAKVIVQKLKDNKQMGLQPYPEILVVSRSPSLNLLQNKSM
Chain of MARK2 (human) (Q7KZI7 whole entry, looked up): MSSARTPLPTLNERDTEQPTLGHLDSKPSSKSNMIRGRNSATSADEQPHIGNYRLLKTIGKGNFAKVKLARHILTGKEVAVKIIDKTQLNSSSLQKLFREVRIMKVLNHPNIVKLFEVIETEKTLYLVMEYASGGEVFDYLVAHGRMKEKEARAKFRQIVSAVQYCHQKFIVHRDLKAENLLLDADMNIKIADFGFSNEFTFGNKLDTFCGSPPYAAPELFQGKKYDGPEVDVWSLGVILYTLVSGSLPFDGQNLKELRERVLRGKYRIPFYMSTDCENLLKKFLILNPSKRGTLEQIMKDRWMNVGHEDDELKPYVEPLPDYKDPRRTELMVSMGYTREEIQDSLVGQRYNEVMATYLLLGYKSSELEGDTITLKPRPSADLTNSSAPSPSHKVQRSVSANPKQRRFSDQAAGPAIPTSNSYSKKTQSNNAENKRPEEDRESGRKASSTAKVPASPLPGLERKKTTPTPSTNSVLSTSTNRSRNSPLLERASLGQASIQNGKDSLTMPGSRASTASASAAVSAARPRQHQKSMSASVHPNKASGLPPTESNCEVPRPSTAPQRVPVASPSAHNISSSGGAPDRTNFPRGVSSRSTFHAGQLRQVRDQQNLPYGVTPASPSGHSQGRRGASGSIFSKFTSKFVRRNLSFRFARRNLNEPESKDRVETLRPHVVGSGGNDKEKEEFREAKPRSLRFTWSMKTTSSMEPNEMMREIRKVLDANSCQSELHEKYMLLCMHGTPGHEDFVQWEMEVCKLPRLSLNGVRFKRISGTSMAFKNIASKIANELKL
Chain of MAPK1 (human) (P28482 whole entry, looked up): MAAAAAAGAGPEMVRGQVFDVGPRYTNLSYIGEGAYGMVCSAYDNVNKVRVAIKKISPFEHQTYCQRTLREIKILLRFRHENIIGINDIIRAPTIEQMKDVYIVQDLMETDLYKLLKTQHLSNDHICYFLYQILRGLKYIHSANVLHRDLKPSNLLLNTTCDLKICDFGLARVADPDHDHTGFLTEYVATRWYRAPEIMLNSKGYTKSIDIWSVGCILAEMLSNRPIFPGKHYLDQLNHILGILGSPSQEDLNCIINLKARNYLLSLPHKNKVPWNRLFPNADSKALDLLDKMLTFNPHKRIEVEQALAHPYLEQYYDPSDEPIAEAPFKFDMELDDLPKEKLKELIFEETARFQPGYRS
Chain of MAPK12 (human) (P53778 whole entry, looked up): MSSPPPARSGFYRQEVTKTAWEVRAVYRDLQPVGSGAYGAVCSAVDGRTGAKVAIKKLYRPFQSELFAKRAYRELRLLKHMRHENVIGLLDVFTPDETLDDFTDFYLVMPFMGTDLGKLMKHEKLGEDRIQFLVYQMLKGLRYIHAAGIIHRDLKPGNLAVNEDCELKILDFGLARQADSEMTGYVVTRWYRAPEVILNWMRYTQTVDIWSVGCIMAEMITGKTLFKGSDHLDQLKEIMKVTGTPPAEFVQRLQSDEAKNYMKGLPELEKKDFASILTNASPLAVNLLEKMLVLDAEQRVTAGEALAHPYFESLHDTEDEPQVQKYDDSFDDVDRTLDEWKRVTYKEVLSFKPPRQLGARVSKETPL
Chain of MAP3K11 (human) (Q16584 whole entry, looked up): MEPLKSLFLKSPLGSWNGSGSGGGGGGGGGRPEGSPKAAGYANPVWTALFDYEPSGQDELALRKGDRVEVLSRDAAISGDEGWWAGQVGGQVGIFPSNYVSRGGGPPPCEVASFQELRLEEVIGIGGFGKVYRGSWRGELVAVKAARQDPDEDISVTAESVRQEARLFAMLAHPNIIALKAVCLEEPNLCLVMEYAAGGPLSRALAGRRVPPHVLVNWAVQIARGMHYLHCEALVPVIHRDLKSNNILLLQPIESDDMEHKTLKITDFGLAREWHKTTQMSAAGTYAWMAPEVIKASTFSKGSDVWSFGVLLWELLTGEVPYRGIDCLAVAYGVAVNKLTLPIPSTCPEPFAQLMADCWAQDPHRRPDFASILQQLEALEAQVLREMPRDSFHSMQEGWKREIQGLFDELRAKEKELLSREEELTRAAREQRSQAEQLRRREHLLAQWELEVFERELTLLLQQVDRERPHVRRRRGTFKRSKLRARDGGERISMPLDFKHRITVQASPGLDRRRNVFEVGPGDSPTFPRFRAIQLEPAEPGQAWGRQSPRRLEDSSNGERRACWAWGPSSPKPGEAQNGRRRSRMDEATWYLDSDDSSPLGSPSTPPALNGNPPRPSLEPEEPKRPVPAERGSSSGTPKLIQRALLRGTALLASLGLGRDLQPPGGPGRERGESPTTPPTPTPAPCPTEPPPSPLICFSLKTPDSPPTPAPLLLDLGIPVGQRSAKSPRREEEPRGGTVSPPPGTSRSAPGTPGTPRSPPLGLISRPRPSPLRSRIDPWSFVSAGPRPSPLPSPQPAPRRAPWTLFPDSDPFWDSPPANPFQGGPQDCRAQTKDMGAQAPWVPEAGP
Chain of FGFR1 (human) (P11362 whole entry, looked up): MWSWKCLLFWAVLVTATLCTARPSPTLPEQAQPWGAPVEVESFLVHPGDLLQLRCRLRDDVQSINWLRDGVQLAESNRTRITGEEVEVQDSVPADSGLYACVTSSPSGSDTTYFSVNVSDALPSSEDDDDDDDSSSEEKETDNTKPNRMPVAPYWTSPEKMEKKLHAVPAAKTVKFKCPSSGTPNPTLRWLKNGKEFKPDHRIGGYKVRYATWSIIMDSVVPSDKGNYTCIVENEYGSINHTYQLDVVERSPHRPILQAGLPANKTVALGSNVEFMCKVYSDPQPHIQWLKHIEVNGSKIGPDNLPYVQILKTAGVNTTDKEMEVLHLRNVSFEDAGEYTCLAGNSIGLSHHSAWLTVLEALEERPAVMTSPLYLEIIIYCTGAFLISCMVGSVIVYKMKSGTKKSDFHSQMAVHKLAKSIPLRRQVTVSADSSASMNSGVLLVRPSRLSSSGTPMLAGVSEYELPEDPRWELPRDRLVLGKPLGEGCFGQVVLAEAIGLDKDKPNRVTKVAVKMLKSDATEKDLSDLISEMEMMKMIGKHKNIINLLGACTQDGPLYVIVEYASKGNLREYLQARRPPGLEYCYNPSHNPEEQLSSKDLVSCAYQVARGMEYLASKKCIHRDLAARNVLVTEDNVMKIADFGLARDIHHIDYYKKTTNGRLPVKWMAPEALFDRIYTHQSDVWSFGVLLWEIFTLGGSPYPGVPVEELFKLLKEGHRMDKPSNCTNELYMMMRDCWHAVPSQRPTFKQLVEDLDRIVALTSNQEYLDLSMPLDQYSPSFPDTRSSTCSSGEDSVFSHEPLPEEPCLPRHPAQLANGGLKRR
Chain of CLK2 (human) (P49760 whole entry, looked up): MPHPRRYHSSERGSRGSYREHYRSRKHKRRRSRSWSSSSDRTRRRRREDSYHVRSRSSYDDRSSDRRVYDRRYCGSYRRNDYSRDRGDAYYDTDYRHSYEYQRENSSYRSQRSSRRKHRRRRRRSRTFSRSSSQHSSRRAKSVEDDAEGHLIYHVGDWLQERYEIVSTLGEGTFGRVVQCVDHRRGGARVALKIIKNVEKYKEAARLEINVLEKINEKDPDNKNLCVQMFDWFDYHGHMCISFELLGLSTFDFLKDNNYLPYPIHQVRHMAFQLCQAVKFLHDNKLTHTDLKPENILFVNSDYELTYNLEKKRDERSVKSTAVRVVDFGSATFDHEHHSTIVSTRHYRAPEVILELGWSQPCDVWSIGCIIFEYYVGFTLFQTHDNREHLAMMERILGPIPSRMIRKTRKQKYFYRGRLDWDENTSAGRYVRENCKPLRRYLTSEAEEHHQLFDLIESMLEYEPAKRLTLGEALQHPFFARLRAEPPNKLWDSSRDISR
Chain of MAPK11 (human) (Q15759 whole entry, looked up): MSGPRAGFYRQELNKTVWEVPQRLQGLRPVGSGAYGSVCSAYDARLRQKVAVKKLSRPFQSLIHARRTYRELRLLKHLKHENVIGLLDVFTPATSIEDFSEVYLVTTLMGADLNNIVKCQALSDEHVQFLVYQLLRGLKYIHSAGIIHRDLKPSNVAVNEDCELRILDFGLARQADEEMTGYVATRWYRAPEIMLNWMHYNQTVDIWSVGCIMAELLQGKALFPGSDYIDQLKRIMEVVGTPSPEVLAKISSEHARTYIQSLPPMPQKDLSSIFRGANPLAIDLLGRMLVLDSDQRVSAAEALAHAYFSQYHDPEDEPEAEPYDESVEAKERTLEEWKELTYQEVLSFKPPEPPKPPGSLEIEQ

Question: For `Cc1cccc(Nc2nc(-c3sc(N)nc3C)cs2)n1`, which residual activity (IKBKE (human)) is on record?
Answer: The residual activity was 9%.

Question: And the residual activity (MAPK8 (human))?
Answer: Its residual activity is 83%.

Question: What about the residual activity (AURKA (human)) of the same compound?
Answer: The residual activity was 7%.

Question: What about the residual activity (PLK1 (human)) of the same compound?
Answer: The residual activity was 90%.

Question: And the residual activity (GSK3B (human))?
Answer: Its residual activity is 78%.

Question: What about the residual activity (PIM3 (human)) of the same compound?
Answer: Its residual activity is 6%.

Question: And the residual activity (MAPK11 (human))?
Answer: Its residual activity is 69%.

Question: What about the residual activity (MARK2 (human)) of the same compound?
Answer: Its residual activity is 66%.

Question: What about the residual activity (MAPK10 (human)) of the same compound?
Answer: The residual activity was 80%.

Question: And the residual activity (TTK (human))?
Answer: Its residual activity is 44%.

Question: And the residual activity (MAPK14 (human))?
Answer: Its residual activity is 36%.

Question: What about the residual activity (ERBB4 (human)) of the same compound?
Answer: The residual activity was 19%.

Question: And the residual activity (HIPK2 (human))?
Answer: Its residual activity is 7%.

Question: What about the residual activity (DYRK2 (human)) of the same compound?
Answer: The residual activity was 23%.

Question: What about the residual activity (NEK2 (human)) of the same compound?
Answer: Its residual activity is 19%.

Question: And the residual activity (FGFR1 (human))?
Answer: The residual activity was 29%.

Question: And the residual activity (INSRR (human))?
Answer: Its residual activity is 26%.

Question: What about the residual activity (CHEK2 (human)) of the same compound?
Answer: The residual activity was 41%.

Question: What about the residual activity (MAP3K9 (human)) of the same compound?
Answer: The residual activity was 4%.

Question: And the residual activity (FLT1 (human))?
Answer: The residual activity was 12%.

Question: And the residual activity (MAPKAPK3 (human))?
Answer: Its residual activity is 8%.

Question: What about the residual activity (DYRK3 (human)) of the same compound?
Answer: The residual activity was 23%.

Question: What about the residual activity (AURKB (human)) of the same compound?
Answer: Its residual activity is 5%.

Question: And the residual activity (PIM1 (human))?
Answer: Its residual activity is 13%.

Question: And the residual activity (MINK1 (human))?
Answer: Its residual activity is 2%.

Question: And the residual activity (MAPK9 (human))?
Answer: The residual activity was 88%.

Question: What about the residual activity (MAPK12 (human)) of the same compound?
Answer: The residual activity was 60%.

Question: What about the residual activity (MAPK1 (human)) of the same compound?
Answer: Its residual activity is 73%.

Question: And the residual activity (RIPK2 (human))?
Answer: Its residual activity is 23%.

Question: And the residual activity (INSR (human))?
Answer: The residual activity was 99%.

Question: What about the residual activity (NUAK1 (human)) of the same compound?
Answer: Its residual activity is 14%.

Question: And the residual activity (DYRK1A (human))?
Answer: The residual activity was 18%.

Question: What about the residual activity (RPS6KA3 KD1 KD2 (human)) of the same compound?
Answer: Its residual activity is 11%.

Question: And the residual activity (MAP3K11 (human))?
Answer: The residual activity was 5%.

Question: What about the residual activity (MAPK13 (human)) of the same compound?
Answer: The residual activity was 65%.

Question: And the residual activity (CLK2 (human))?
Answer: Its residual activity is 18%.

Question: And the residual activity (MAPKAPK2 (human))?
Answer: Its residual activity is 8%.

Question: What about the residual activity (MAPK3 (human)) of the same compound?
Answer: The residual activity was 19%.

Question: And the residual activity (BTK (human))?
Answer: Its residual activity is 21%.

Question: What about the residual activity [1] of the same compound?
Answer: Its residual activity is 8%.

Question: And the residual activity (CaMK1 (human))?
Answer: The residual activity was 3%.
